Assay results as given in ChEMBL document CHEMBL4396870, “Pharmacological Chaperones for the Treatment of α-Mannosidosis” (J Med Chem, 2019).
Where a chain is given by its changes, count along the chain named.

Tests used:
[1] = biological target: T1, Lysosomal alpha-mannosidase (Homo sapiens) (UniProt O00754); experiment: Chaperone activity at Lysosomal alpha-mannosidase in wild-type human fibroblasts assessed as increase in Lysosomal alpha-mannosidase activity at 0.2 uM using 4-methylumbelliferone alpha-D-mannopyranoside as a reporter substrate incubated for 4 days by fluorescence method relative to control
T1 sequence (whole entry): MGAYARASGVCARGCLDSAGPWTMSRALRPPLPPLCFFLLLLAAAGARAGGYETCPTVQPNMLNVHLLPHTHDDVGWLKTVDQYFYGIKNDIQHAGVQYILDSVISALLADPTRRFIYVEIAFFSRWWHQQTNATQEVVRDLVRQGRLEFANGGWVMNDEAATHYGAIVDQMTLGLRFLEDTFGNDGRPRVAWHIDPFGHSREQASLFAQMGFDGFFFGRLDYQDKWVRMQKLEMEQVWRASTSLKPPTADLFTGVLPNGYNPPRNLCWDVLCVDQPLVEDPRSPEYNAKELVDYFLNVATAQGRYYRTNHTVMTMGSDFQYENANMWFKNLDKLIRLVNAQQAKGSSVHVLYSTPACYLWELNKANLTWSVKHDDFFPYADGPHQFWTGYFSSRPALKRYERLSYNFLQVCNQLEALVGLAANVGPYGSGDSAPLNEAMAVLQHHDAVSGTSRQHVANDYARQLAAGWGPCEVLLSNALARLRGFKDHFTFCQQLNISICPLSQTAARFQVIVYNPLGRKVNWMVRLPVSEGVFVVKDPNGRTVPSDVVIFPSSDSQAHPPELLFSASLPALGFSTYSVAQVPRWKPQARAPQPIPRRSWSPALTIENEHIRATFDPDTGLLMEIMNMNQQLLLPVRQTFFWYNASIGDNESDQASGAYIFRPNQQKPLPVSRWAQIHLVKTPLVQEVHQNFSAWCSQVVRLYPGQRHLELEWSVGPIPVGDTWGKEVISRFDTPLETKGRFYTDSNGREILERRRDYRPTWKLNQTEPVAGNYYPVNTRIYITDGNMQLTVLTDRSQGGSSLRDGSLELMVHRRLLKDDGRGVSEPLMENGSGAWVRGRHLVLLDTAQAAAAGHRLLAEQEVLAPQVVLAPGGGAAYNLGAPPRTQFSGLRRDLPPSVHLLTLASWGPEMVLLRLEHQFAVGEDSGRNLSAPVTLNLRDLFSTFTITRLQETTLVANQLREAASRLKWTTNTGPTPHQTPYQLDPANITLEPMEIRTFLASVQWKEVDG

[2] = tested on: T2, Lysosomal alpha-mannosidase (Homo sapiens), O00754 [R916C]; experiment: Chaperone activity at human Lysosomal alpha-mannosidase R916C mutant transfected in human […] knockout HAP1 cells assessed as enzyme activity enhancement at 20 uM incubated for 96 hrs relative to control
T2 sequence (whole entry): T1 sequence (whole entry) with R916C

Row | fold change (FC) [1] | Activity [2] [%] | Structure (SMILES)
1 | 2 | 11 | COC[C@H]1O[C@@H]2O[C@H]3[C@H](OC)[C@@H](OC)[C@@H](O[C@H]4[C@H](OC)[C@@H](OC)[C@@H](O[C@H]5[C@H](OC)[C@@H](OC)[C@@H](O[C@H]6[C@H](OC)[C@@H](OC)[C@@H](O[C@H]7[C@H](OC)[C@@H](OC)[C@@H](O[C@H]8[C@H](OC)[C@@H](OC)[C@@H](O[C@H]1[C@H](OC)[C@H]2OC)O[C@@H]8COC)O[C@@H]7COC)O[C@@H]6COC)O[C@@H]5COCc1cn(CCCCCCN[C@@H]2[C@@H](O)[C@@H](O)[C@H](O)[C@H]5COC(=O)N52)nn1)O[C@@H]4COC)O[C@@H]3COC
2 |  | 63 | CC(C)(C)OC(=O)NCCCCCCCCCN[C@@H]1[C@@H](O)[C@@H](O)[C@H](O)[C@H]2COC(=O)N21
3 | 2 |  | CCCc1cn(CCCCCCN[C@@H]2[C@@H](O)[C@@H](O)[C@H](O)[C@H]3COC(=O)N32)nn1
